Assay results reported in patent US20200016200A1, “MODULATING CYTOTOXIC CELL LYTIC GRANULE POSITIONING TO PROMOTE DIFFUSE KILLING IN CELLULAR THERAPIES” (Baylor College of Medicine, priority 2016, published 2020).
“Also recorded” adds a separate entry of the source.

Key:
CD19 CAR NK cells = experiment: Standard 4-hour 51Cr cytotoxicity assay, bystander killing; format: cell-based; details: for more bystander cells lysed compared to DMSO: wildtype Daoy bystanders, Daoy-CD19 inciting targets
Method: FIG. 22. Bystander killing with increasing amounts of ciliobrevin D in the presence of CD19 CAR-bearing NK cells. Standard 4-hour ^51Cr cytotoxicity assay of CD19 CAR NK cells treated with ciliobrevin D (12.5, 25, and 50 μM) or DMSO control. Daoy-CD19 cells were used as inciting target cells to activate CD19 CAR-bearing NK cells. Wildtype Daoy cells were used as innocent bystander cells to measure the degree of collateral damage caused by non-directional degranulation.
(§1) Similarly, compared to DMSO, ciliobrevin D-treated CD19 CAR NK cells lyse approximately 24%, 39% and 40% more bystander cells at the concentration of 12.5, 25 and 50 μM, respectively (FIG. 22). […] FIG. 23 and FIG. 24 are time-lapse images of videos of control ([…]) and ciliobrevin D-treated ([…]) CD19 CAR T cells. […] In the control group, however, lytic granules converge immediately upon interacting with the target cell and remain tightly clustered until target is killed by the CD19 CAR T cell as indicated by uptake of the SYTOX Blue viability dye.

GD2 CAR-bearing T cells = experiment: Live cell confocal microscopy of lytic granule positioning (LysoTracker Red); format: cell-based; details: ciliobrevin D 50 μM vs DMSO, straight out of culture or 0.5 h post cytokine (IL-7, IL-15) re-addition
Method: FIG. 20. […] Live cell confocal microscopy of GD2 CAR-bearing T cells treated with DMSO or ciliobrevin D (50 μM). Lytic granule positioning was tracked using LysoTracker Red. […] The culture medium for GD2 CAR T cells contains IL-7 and IL-15. […] Quantitative analyses of lytic granule distance from the MTOC are shown as a feature of the degree of granule convergence in GD2 CAR-bearing T cells.
(§2) Specifically, the inventors have shown convergence in CD19 CAR T cells, CD19 CAR NK cells, PSCA CAR T cells, GD2 CAR NKT cells, HER2 CART cells, and glypican CAR T cells (FIG. 15A). Using a measurement of mean granule distance from the MTOC, CAR cells have varying degrees of converged lytic granules (FIG. 15B).

CD19 CAR T cells = experiment: Standard 4-hour 51Cr cytotoxicity assay, bystander killing; format: cell-based; details: for increase of bystander killing compared to DMSO control: 10:1 effector to target ratio, BV173 bystanders, Daoy-CD19 inciting targets, representative donor
Method: FIG. 21. Bystander killing with increasing amounts of ciliobrevin D in the presence of CD19 CAR-bearing T cells. Standard 4-hour ^51Cr cytotoxicity assay of CD19 CAR T cells treated with ciliobrevin D (25, 50 and 100 μM) or DMSO control. CD19-expressing Daoy cells (Daoy-CD19, a medulloblastoma cell line engineered to express CD19) were used as inciting target cells to trigger the activation of CD19 CAR-bearing T cells. BV173 cells, a human acute lymphoblastic leukemia cell line, were used as non-susceptible bystander cells to measure the degree of collateral damage caused by non-directional degranulation.
as §1

[1] = test system: CD19 CAR-bearing NK cells; experiment: Live cell confocal microscopy of lytic granule positioning (LysoTracker Red); format: cell-based; details: ciliobrevin D 50 μM vs DMSO, straight out of culture or 0.5 h post cytokine (IL-2) re-addition
Method: FIG. 19. […] Live cell confocal microscopy of CD19 CAR-bearing NK cells treated with DMSO or ciliobrevin D (50 μM). Lytic granule positioning was tracked using LysoTracker Red. […] The culture medium for CD19 CAR NK cells contains IL-2. […] Quantitative analyses of lytic granule distance from the MTOC are shown as a feature of the degree of granule convergence in […].
as §2

eNK cells = experiment: Flow cytometry-based cytotoxicity / bystander killing assay; format: cell-based, human
Method: (§3) Because directed degranulation with converged granules promoted killing efficiency, ciliobrevin D was used to physically prevent convergence in a cell that had received a convergence signal. It was considered that this would allow us to abrogate the killing efficiency benefit imparted by lytic granule convergence. In order to measure killing of both the target and bystander cells in a single experiment, flow cytometry-based cytotoxicity assays were performed, wherein each cell line was labeled with a unique fluorescent dye in the presence of media containing SYTOX Blue viability indicator dye. […] The viability of YTS ([…]), NK92 (FIG. 14E, 14H) and eNK (FIG. 14F, 14I) was not affected by DMSO or ciliobrevin D treatments. […] To ask if it promoted more collateral damage by NK cells 51Cr-labeled Raji cells were added (to serve as innocent bystanders) along with unlabeled 721.221 or K562 target cells. […] YTS or NK92 cells co-cultured with 51Cr-labeled Raji cells in the absence of 721.221 or K562 were unable to kill Raji cells (FIG. 14J). […] Convergence therefore serves to protect innocent bystander cells in complex cellular environments.
(§4) YTS-CD16, NK92-CD16 and eNK cells were labeled with CellTrace CFSE for 10 min at room temperature, washed, and treated with ciliobrevin D or DMSO control as described below in inhibitors. 721.221 and K562 cells were labeled with cell proliferation dye eFluor 670 for 5 min at room temperature. Raji cells were labeled with PKH-26 according to manufacture's protocol. NK cells were then mixed with the corresponding targets and Raji cells at a final volume of 200 μl complete R10 and incubated at 37° C. for 2 hr. Cells were then labeled with SYTOX Blue viability dye for 5 min at room temperature, washed, and run on LSRFortessa flow cytometer (BD).
(§5) Where applicable, YTS, NK92 and eNK cells were pretreated with […] ciliobrevin D (Millipore) for 30 min then washed. DMSO was used as the vehicle control for all inhibitor experiments. The inhibitor was also added into the co-culture with target cells.

YTS cells = experiment: as above; format: cell-based, human
Method: as §3, §4, §5

NK92 cells = experiment: as above; format: cell-based, human
Method: as §3, §4, §5

SMILES: N#CC(C(=O)c1ccc(Cl)cc1Cl)=C1NC(=O)c2ccc(Cl)cc2N1 [ciliobrevin D, 2-(7-chloro-4-oxo-3,4-dihydroquinazolin-2(1H)-ylidene)-3-(2,4-dichlorophenyl)-3-oxopropanenitrile]
- more bystander cells lysed compared to DMSO (CD19 CAR NK cells; 12.5 μM): approximately 24%
- more bystander cells lysed compared to DMSO (CD19 CAR NK cells; 25 μM): ~39%
- more bystander cells lysed compared to DMSO (CD19 CAR NK cells; 50 μM): ~40%
- non-specific lysis of Daoy cells (CD19 CAR NK cells; 12.5, 25 and 50 μM vs DMSO): dose-dependent increases
- stimulation-induced lytic granule convergence (GD2 CAR-bearing T cells): blocks stimulation-induced convergence
- stimulation-induced lytic granule convergence (GD2 CAR-bearing T cells; listed as Ciliobrevin D): dispersed lytic granules
- increase of bystander killing compared to DMSO control (CD19 CAR T cells; 25 μM): approximately 48%
- increase of bystander killing compared to DMSO control (CD19 CAR T cells; 50 μM): ~71%
- increase of bystander killing compared to DMSO control (CD19 CAR T cells; 100 μM): ~90%
- non-specific lysis of BV173 cells (CD19 CAR T cells; 25, 50 and 100 μM, each effector to target ratio, vs DMSO): dose-dependent increases
- stimulation-induced lytic granule convergence [1]: blocks stimulation-induced convergence
- stimulation-induced lytic granule convergence ([1]; listed as Ciliobrevin D): dispersed lytic granules
- specific lysis of susceptible target cells (eNK cells; eNK against K562, Raji bystander cells added, vs DMSO): no change in killing; also recorded: not affected
- killing of susceptible target cells (eNK cells; eNK against K562, absence of Raji bystander cells, vs DMSO): did not affect killing; also recorded: not affected
- non-specific lysis (bystander killing) of Raji cells (eNK cells; eNK with K562 inciting targets, vs DMSO): killing of the bystander Raji cells in a dose-dependent manner; also recorded: increased
- viability of NK cells (eNK cells; eNK, standard cytotoxicity and bystander killing assays): not affected; also recorded: not different
- specific lysis of susceptible target cells (YTS cells; YTS against 721.221, Raji bystander cells added, vs DMSO): no change in killing; also recorded: not affected
- killing of susceptible target cells (YTS cells; YTS against 721.221, absence of Raji bystander cells, vs DMSO): did not affect killing; also recorded: not affected
- non-specific lysis (bystander killing) of Raji cells (YTS cells; YTS with 721.221 inciting targets, vs DMSO): killing of the bystander Raji cells in a dose-dependent manner; also recorded: increased
- viability of NK cells (YTS cells; YTS, standard cytotoxicity and bystander killing assays): not affected; also recorded: not different
- viability of NK cells (NK92 cells; NK92, standard cytotoxicity and bystander killing assays): not affected; also recorded: not different
- specific lysis of susceptible target cells (NK92 cells; NK92 against K562, Raji bystander cells added, vs DMSO): no change in killing; also recorded: not affected
- killing of susceptible target cells (NK92 cells; NK92 against K562, absence of Raji bystander cells, vs DMSO): did not affect killing; also recorded: not affected
- non-specific lysis (bystander killing) of Raji cells (NK92 cells; NK92 with K562 inciting targets, vs DMSO): killing of the bystander Raji cells in a dose-dependent manner; also recorded: increased
